# Data taken from ChEMBL document CHEMBL1795337, “Sulfonamides incorporating boroxazolidone moieties are potent inhibitors of the transmembrane, tumor-associated carbonic anhydrase isoforms IX and XII” (Bioorg Med Chem Lett, 2011).
# Target: Carbonic anhydrase 9 (Homo sapiens, UniProt Q16790)
# Description: Inhibition of human recombinant catalytic domain of carbonic anhydrase 9 preincubated for 15 mins by stopped-flow CO2 hydration assay
row,Structure (SMILES),Ki [nM]
1,CCB(CC)OC(=O)[C@@H](N)CCCCNC(=S)Nc1ccc(S(N)(=O)=O)cc1Cl,91
2,CCB(CC)OC(=O)[C@@H](N)CCCCNC(=S)Nc1ccc(S(=O)(=O)NCc2ccc(S(N)(=O)=O)cc2)cc1,7.7
3,CCB(CC)OC(=O)[C@@H](N)CCCCNC(=S)Nc1cccc(S(N)(=O)=O)c1,9.5
4,CCB(CC)OC(=O)[C@@H](N)CCCCNC(=S)Nc1ccc(S(N)(=O)=O)cc1F,89
5,CCB(CC)OC(=O)[C@@H](N)CCCCNC(=S)Nc1ccc(S(N)(=O)=O)cc1,9.3
6,CCB(CC)OC(=O)[C@@H](N)CCCCNC(=S)Nc1ccc(S(N)(=O)=O)cc1Br,92
7,CCB(CC)OC(=O)[C@@H](N)CCCCNC(=S)Nc1ccc(S(=O)(=O)Nc2nnc(S(N)(=O)=O)s2)cc1,8.6
8,CCB(CC)OC(=O)[C@@H](N)CCCCNC(=S)NCCc1ccc(S(N)(=O)=O)cc1,9.6
9,CCB(CC)OC(=O)[C@@H](N)CCCCNC(=S)NCc1ccc(S(N)(=O)=O)cc1,9.5
10,CCB(CC)OC(=O)[C@@H](N)CCCCNC(=S)Nc1ccc(S(=O)(=O)NCCc2ccc(S(N)(=O)=O)cc2)cc1,9
